The molecules below were run against T1, Cdc7 (BEV coexpressed huCDC7/DBF4) (Homo sapiens, UniProt O00311) (assay: Cdc7 enzyme inhibition assay ([33P]ATP, biotinylated peptide substrate, FlashPlate)). Settings: not given.
T1 construct: made in house; host or cells: BEV (baculovirus expression vector) co-expression; insect cells are implied but no cell line is named
Format: biochemical
Protocol: Cdc7 (BEV coexpressed huCDC7/DBF4) is prepared internally. Cdc7 assays are conducted as follows with final concentrations as listed. […] Reactions are quenched after 1 hr by the addition of 90 μL stop buffer (50 mM EDTA, 2M NaCl). […] (Ki) for exemplary compounds.

T1 sequence (O00311 whole entry): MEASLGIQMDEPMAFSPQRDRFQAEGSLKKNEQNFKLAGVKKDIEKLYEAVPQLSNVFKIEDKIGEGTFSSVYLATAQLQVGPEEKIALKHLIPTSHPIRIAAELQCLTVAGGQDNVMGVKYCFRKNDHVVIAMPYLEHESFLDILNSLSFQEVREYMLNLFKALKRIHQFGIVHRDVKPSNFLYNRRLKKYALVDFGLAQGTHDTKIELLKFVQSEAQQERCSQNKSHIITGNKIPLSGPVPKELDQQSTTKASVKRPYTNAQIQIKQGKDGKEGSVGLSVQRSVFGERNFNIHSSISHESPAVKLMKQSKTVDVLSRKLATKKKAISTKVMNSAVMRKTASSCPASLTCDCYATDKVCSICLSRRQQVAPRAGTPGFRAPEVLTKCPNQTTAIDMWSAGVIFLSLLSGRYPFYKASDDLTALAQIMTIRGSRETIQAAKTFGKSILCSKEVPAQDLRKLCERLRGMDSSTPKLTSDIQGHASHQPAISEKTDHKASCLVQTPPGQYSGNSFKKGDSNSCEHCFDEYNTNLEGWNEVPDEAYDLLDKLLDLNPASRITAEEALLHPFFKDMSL
T1 sequence (Q9UBU7 whole entry partner): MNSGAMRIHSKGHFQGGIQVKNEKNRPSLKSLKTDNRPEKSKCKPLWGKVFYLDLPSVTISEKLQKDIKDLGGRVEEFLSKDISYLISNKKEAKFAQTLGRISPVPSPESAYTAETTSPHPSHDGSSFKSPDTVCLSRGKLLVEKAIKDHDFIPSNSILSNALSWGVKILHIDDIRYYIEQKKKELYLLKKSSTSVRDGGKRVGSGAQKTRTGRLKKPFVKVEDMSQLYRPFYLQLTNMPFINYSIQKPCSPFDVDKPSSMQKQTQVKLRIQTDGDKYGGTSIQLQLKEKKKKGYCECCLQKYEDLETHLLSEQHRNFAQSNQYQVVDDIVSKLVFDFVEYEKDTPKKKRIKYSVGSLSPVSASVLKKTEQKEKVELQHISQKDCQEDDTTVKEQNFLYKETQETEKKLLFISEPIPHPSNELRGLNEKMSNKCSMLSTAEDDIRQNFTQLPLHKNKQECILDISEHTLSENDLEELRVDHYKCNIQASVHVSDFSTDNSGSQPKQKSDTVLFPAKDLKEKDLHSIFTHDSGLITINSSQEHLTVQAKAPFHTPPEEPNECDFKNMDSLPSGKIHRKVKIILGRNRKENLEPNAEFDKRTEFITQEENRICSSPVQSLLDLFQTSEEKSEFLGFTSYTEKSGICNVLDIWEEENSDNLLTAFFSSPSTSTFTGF

| SMILES | Ki [nM] |
| --- | --- |
| Clc1cc(-c2c[nH]c3ncccc23)cc(NCC2CCCO2)n1 (centres unmarked) [Example 13, 6-chloro-4-(1H-pyrrolo[2,3-b]pyridin-3-yl)-N-(tetrahydrofuran-2-ylmethyl)pyridin-2-amine] | < 10 |
| Cc1cccc(-c2cc(-c3c[nH]c4ncccc34)cc(Cl)n2)c1C [Example 7, 3-[2-chloro-6-(2,3-dimethylphenyl)pyridin-4-yl]-1H-pyrrolo[2,3-b]pyridine] | 10 to 100 |

Same assay, conditions: Table 2; Comparative Example lacking the chloro substituent versus the chloro Example

| SMILES | Ki ratio comparisons (Ki Comparative Example/Ki Example) |
| --- | --- |
| NC(=O)c1cc(-c2c[nH]c3ncccc23)cc(NCc2ccccc2)n1 [Comparative Example 7, 6-(benzylamino)-4-(1H-pyrrolo[2,3-b]pyridin-3-yl)pyridine-2-carboxamide, reference compound] | 45 |
| N#Cc1cc(-c2c[nH]c3ncccc23)cc(N2CCCCC2)n1 [Comparative Example 8, 6-piperidin-1-yl-4-(1H-pyrrolo[2,3-b]pyridin-3-yl)pyridine-2-carbonitrile, reference compound] | 2 |

Same assay, conditions: Table 3; enzyme inhibition data (Ki)

| SMILES | Ki [nM] |
| --- | --- |
| CC(C)C(=O)NC1CCC(Nc2cc(-c3c[nH]c4ncccc34)cc(Cl)n2)CC1 (centres unmarked) [Example 64, N-(4-{[6-chloro-4-(1H-pyrrolo[2,3-b]pyridin-3-yl)pyridin-2-yl]amino}cyclohexyl)-2-methylpropanamide] | < 10 |
| OCCn1cc(-c2cnc3[nH]cc(-c4cc(Cl)nc(NC5CCCCC5)c4)c3c2)cn1 [Example 212, 2-(4-{3-[2-chloro-6-(cyclohexylamino)pyridin-4-yl]-1H-pyrrolo[2,3-b]pyridin-5-yl}-1H-pyrazol-1-yl)ethanol] | < 10 |
| Clc1cc(-c2c[nH]c3ncccc23)cc(NC2CCCN(CC3CC3)C2)n1 (centres unmarked) [Example 319, 6-chloro-N-[1-(cyclopropylmethyl)piperidin-3-yl]-4-(1H-pyrrolo[2,3-b]pyridin-3-yl)pyridin-2-amine] | < 10 |
| Clc1cc(-c2c[nH]c3ncccc23)cc(NCCc2c[nH]c3ccccc23)n1 [Example 405, 6-chloro-N-[2-(1H-indol-3-yl)ethyl]-4-(1H-pyrrolo[2,3-b]pyridin-3-yl)pyridin-2-amine] | < 10 |
| CCN(CC)[C@H]1CC[C@H](Nc2cc(-c3c[nH]c4ncccc34)cc(Cl)n2)CC1 [Example 334, trans-N′-[6-chloro-4-(1H-pyrrolo[2,3-b]pyridin-3-yl)pyridin-2-yl]-N,N-diethylcyclohexane-1,4-diamine] | < 10 |
| O=C(C1CC1)N1CCC(NC2CCC(Nc3cc(-c4c[nH]c5ncccc45)cc(Cl)n3)CC2)CC1 (centres unmarked) [Example 175, {4-[(4-{[6-chloro-4-(1H-pyrrolo[2,3-b]pyridin-3-yl)pyridin-2-yl]amino}cyclohexyl)amino]piperidin-1-yl}(cyclopropyl)methanone] | < 10 |
| O=C(NC1CCCC(Nc2cc(-c3c[nH]c4ncccc34)cc(Cl)n2)C1)C1CC1 (centres unmarked) [Example 69, N-(3-{[6-chloro-4-(1H-pyrrolo[2,3-b]pyridin-3-yl)pyridin-2-yl]amino}cyclohexyl)cyclopropanecarboxamide] | < 10 |
| Clc1cc(-c2c[nH]c3ncccc23)cc(Nc2ccc(-n3ccnc3)cc2)n1 [Example 413, 6-chloro-N-[4-(1H-imidazol-1-yl)phenyl]-4-(1H-pyrrolo[2,3-b]pyridin-3-yl)pyridin-2-amine] | < 10 |
| O=C(CN1CCCCCC1)NC1CCCC(Nc2cc(-c3c[nH]c4ncccc34)cc(Cl)n2)C1 (centres unmarked) [Example 340, 2-(azepan-1-yl)-N-(3-{[6-chloro-4-(1H-pyrrolo[2,3-b]pyridin-3-yl)pyridin-2-yl]amino}cyclohexyl)acetamide] | < 10 |
| CC(C)S(=O)(=O)N[C@H]1CC[C@H](Nc2cc(-c3c[nH]c4ncccc34)cc(Cl)n2)CC1 [Example 311, N-(trans-4-{[6-chloro-4-(1H-pyrrolo[2,3-b]pyridin-3-yl)pyridin-2-yl]amino}cyclohexyl)propane-2-sulfonamide] | < 10 |
| Clc1cc(-c2c[nH]c3ncccc23)cc(NCCCn2ccnc2)n1 [Example 376, 6-chloro-N-[3-(1H-imidazol-1-yl)propyl]-4-(1H-pyrrolo[2,3-b]pyridin-3-yl)pyridin-2-amine] | < 10 |
| NC1(C(=O)NC2CCCC(Nc3cc(-c4c[nH]c5ncccc45)cc(Cl)n3)C2)CCC1 (centres unmarked) [Example 135, 1-amino-N-(3-{[6-chloro-4-(1H-pyrrolo[2,3-b]pyridin-3-yl)pyridin-2-yl]amino}cyclohexyl)cyclobutanecarboxamide] | < 10 |

Now from value to molecule:

| Ki [nM] | SMILES |
| --- | --- |
| < 10 | CN(C)C1CCCC(Nc2cc(-c3c[nH]c4ncccc34)cc(Cl)n2)C1 (centres unmarked) [Example 59, N′-[6-chloro-4-(1H-pyrrolo[2,3-b]pyridin-3-yl)pyridin-2-yl]-N,N-dimethylcyclohexane-1,3-diamine] |
| < 10 | O=C(O)c1cnc2[nH]cc(-c3cc(Cl)nc(NC4CCCCC4)c3)c2c1 [Example 235, 3-[2-chloro-6-(cyclohexylamino)pyridin-4-yl]-1H-pyrrolo[2,3-b]pyridine-5-carboxylic acid] |
| < 10 | O=S(=O)(C1CC1)N1CCCC(CNc2cc(-c3c[nH]c4ncccc34)cc(Cl)n2)C1 (centres unmarked) [Example 101, 6-chloro-N-{[1-(cyclopropylsulfonyl)piperidin-3-yl]methyl}-4-(1H-pyrrolo[2,3-b]pyridin-3-yl)pyridin-2-amine] |
| < 10 | COc1cnc2[nH]cc(-c3cc(Cl)nc(NC4CCCC(NS(=O)(=O)c5cccs5)C4)c3)c2c1 (centres unmarked) [Example 262, N-(3-{[6-chloro-4-(5-methoxy-1H-pyrrolo[2,3-b]pyridin-3-yl)pyridin-2-yl]amino}cyclohexyl)thiophene-2-sulfonamide] |
| < 10 | COCC(=O)NC1CCC(Nc2cc(-c3c[nH]c4ncccc34)cc(Cl)n2)CC1 (centres unmarked) [Example 289, N-(4-{[6-chloro-4-(1H-pyrrolo[2,3-b]pyridin-3-yl)pyridin-2-yl]amino}cyclohexyl)-2-methoxyacetamide] |
| < 10 | CS(=O)(=O)N[C@@H]1CCCC[C@H]1Nc1cc(-c2c[nH]c3ncccc23)cc(Cl)n1 (relative stereo) [Example 110, N-[(trans)-2-{[6-chloro-4-(1H-pyrrolo[2,3-b]pyridin-3-yl)pyridin-2-yl]amino}cyclohexyl]methanesulfonamide] |
| < 10 | O=S(=O)(Nc1cc(-c2c[nH]c3ncccc23)cc(Cl)n1)c1ccc(F)cc1 [Example 331, N-[6-chloro-4-(1H-pyrrolo[2,3-b]pyridin-3-yl)pyridin-2-yl]-4-fluorobenzenesulfonamide] |
| < 10 | CN(C)[C@H]1CC[C@H](Nc2cc(-c3c[nH]c4ncccc34)cc(Cl)n2)CC1 [Example 93, trans-N′-[6-chloro-4-(1H-pyrrolo[2,3-b]pyridin-3-yl)pyridin-2-yl]-N,N-dimethylcyclohexane-1,4-diamine] |
| < 10 | O=C(C1CC1)N1CCC(C2CCC(Nc3cc(-c4c[nH]c5ncccc45)cc(Cl)n3)CC2)CC1 (centres unmarked) [Example 366, [4-(4-{[6-chloro-4-(1H-pyrrolo[2,3-b]pyridin-3-yl)pyridin-2-yl]amino}cyclohexyl)piperidin-1-yl](cyclopropyl)methanone] |
| < 10 | Clc1cc(-c2c[nH]c3ncccc23)cc(NC2CCC(C3CCNCC3)CC2)n1 (centres unmarked) [Example 159, 6-chloro-N-[4-(piperidin-4-yl)cyclohexyl]-4-(1H-pyrrolo[2,3-b]pyridin-3-yl)pyridin-2-amine] |
